Data from ChEMBL document CHEMBL5120836, “Discovery of novel 7,8-dihydropteridine-6(5H)-one-based DNA-PK inhibitors as potential anticancer agents via scaffold hopping strategy” (Eur J Med Chem, 2022).
Calls of active or inactive are those of the source. The calls are words filed in the database; no cut-off is given here.

Assays:
[1] = tested on: HCT-116; assay: Induction of apoptosis in human HCT-116 cells assessed as early apoptotic cells at 1 uM incubated for 24 hrs in presence of 100 nM doxorubicin by AnnexinV-FITC/PI staining based flow cytometry (reference value: 3.04%); assay type: functional
[2] = tested on: HL-60; assay: Synergistic antiproliferative activity against human HL-60 cells assessed as combination index at 0.1 uM in presence of 0.1 uM doxorubicin by MTT assay; assay type: functional
[3] = molecular target: Phosphatidylinositol 4,5-bisphosphate 3-kinase catalytic subunit gamma isoform (Homo sapiens, UniProt P48736); assay: Inhibition of human PI3Kgamma by ADP-Glo assay; assay type: toxicity
Sequence of Phosphatidylinositol 4,5-bisphosphate 3-kinase catalytic subunit gamma isoform (P48736 whole entry, canonical isoform): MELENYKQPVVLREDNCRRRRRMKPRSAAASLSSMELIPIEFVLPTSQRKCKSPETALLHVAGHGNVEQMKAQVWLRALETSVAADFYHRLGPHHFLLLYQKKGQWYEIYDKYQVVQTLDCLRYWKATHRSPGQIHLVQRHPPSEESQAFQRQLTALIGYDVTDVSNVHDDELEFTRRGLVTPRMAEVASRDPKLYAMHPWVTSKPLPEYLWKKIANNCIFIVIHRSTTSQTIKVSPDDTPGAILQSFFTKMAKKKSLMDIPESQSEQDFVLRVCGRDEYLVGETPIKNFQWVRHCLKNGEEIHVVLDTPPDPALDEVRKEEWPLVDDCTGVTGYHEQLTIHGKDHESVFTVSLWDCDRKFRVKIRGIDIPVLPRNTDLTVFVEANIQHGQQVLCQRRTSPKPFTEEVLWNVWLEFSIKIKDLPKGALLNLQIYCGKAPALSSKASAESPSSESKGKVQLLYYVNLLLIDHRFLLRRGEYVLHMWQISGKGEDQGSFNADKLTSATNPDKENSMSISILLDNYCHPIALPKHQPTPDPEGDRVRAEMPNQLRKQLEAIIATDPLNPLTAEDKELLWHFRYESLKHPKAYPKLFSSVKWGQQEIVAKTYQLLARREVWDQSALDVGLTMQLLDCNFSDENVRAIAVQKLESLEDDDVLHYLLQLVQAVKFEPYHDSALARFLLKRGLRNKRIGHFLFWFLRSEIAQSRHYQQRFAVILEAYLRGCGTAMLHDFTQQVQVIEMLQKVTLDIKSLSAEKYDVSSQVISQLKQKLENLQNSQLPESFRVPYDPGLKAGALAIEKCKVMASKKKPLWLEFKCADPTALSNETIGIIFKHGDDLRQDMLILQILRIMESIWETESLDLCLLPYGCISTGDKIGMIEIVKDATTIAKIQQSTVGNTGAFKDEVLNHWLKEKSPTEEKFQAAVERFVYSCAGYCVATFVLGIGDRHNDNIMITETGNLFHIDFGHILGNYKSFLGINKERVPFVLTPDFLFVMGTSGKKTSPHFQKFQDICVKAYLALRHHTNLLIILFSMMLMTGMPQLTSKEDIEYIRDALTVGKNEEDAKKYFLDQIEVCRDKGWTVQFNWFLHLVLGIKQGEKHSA

[4] = tested on: HL-60; assay: Synergistic antiproliferative activity against human HL-60 cells assessed as combination index at 100 uM in presence of 0.1 uM doxorubicin by MTT assay; assay type: functional
[5] = Toxicity in BALB/c nude mouse xenografted with human HL-60 cells assessed as serum lymphocytes content at 100 mg/kg, po qd for 16 days (reference value: 2.65X10^9/L); assay type: organism-based; settings: in vivo, 384 h, time 16 day
[6] = tested on: HepG2; assay: Synergistic antiproliferative activity against Doxorubicin-resistant human HepG2 cells assessed as combination index at 0.5 uM in presence of 0.1 uM doxorubicin by MTT assay; assay type: functional
[7] = Intrinsic clearance in rat liver microsomes; assay type: ADME, Microsome; settings: read-out: CLH
[8] = tested on: HCT-116; assay: Induction of apoptosis in human HCT-116 cells assessed as late apoptotic cells at 1 uM incubated for 24 hrs by AnnexinV-FITC/PI staining based flow cytometry (reference value: 3.07%); assay type: functional
[9] = tested on: MDA-MB-231; assay: Synergistic antiproliferative activity against human MDA-MB-231 cells assessed as combination index at 12.5 uM in presence of 0.1 uM doxorubicin by MTT assay; assay type: functional
[10] = tested on: HepG2; assay: Synergistic antiproliferative activity against Doxorubicin-resistant human HepG2 cells assessed as combination index at 6.25 uM in presence of 0.1 uM doxorubicin by MTT assay; assay type: functional
[11] = tested on: HCT-116; assay: Induction of cell cycle arrest in human HCT-116 cells assessed as increase in accumulation of cells at […] at 1 uM incubated for 24 hrs in presence of 100 nM doxorubicin by PI staining based flow cytometry; assay type: functional
[12] = tested on: HCT-116; assay: Antiproliferative activity against human HCT-116 cells assessed as inhibition of cell growth incubated for 48 hrs in presence of 100 nM doxorubicin by MTT assay; assay type: functional, cell-based; settings: HCT-116, 48 h
[13] = tested on: HepG2; assay: Synergistic antiproliferative activity against Doxorubicin-resistant human HepG2 cells assessed as combination index at 0.1 uM in presence of 0.1 uM doxorubicin by MTT assay; assay type: functional
[14] = tested on: MCF7; assay: Synergistic antiproliferative activity against human MCF7 cells assessed as inhibition of cell growth in presence of 100 nM doxorubicin by MTT assay; assay type: functional, cell-based
[15] = tested on: HL-60; assay: Synergistic antiproliferative activity against human HL-60 cells assessed as combination index at 6.25 uM in presence of 0.1 uM doxorubicin by MTT assay; assay type: functional
[16] = tested on: HL-60; assay: Synergistic antiproliferative activity against human HL-60 cells assessed as combination index at 0.5 uM in presence of 0.1 uM doxorubicin by MTT assay; assay type: functional
[17] = tested on: HCT-116; assay: Induction of cell cycle arrest in human HCT-116 cells assessed as increase in accumulation of cells at G2/M phase at 1 uM incubated for 24 hrs in presence of 100 nM doxorubicin by PI staining based flow cytometry; assay type: functional
[18] = tested on: HCT-116; assay: Induction of apoptosis in human HCT-116 cells assessed as early apoptotic cells at 1 uM incubated for 24 hrs by AnnexinV-FITC/PI staining based flow cytometry (reference value: 3.04%); assay type: functional
[19] = tested on: MCF7; assay: Synergistic antiproliferative activity against human MCF7 cells assessed as combination index at 12.5 uM in presence of 0.1 uM doxorubicin by MTT assay; assay type: functional
[20] = Toxicity in BALB/c nude mouse xenografted with human HL-60 cells assessed as serum lymphocytes content at 100 mg/kg, po qd for 16 days (reference value: 75.3%); assay type: organism-based; settings: in vivo, 384 h, time 16 day
[21] = molecular target: T1, Phosphatidylinositol 4,5-bisphosphate 3-kinase catalytic subunit delta isoform (Homo sapiens, UniProt O00329); assay: Inhibition of human PI3Kdelta by ADP-Glo assay; assay type: toxicity
T1 sequence (O00329 whole entry): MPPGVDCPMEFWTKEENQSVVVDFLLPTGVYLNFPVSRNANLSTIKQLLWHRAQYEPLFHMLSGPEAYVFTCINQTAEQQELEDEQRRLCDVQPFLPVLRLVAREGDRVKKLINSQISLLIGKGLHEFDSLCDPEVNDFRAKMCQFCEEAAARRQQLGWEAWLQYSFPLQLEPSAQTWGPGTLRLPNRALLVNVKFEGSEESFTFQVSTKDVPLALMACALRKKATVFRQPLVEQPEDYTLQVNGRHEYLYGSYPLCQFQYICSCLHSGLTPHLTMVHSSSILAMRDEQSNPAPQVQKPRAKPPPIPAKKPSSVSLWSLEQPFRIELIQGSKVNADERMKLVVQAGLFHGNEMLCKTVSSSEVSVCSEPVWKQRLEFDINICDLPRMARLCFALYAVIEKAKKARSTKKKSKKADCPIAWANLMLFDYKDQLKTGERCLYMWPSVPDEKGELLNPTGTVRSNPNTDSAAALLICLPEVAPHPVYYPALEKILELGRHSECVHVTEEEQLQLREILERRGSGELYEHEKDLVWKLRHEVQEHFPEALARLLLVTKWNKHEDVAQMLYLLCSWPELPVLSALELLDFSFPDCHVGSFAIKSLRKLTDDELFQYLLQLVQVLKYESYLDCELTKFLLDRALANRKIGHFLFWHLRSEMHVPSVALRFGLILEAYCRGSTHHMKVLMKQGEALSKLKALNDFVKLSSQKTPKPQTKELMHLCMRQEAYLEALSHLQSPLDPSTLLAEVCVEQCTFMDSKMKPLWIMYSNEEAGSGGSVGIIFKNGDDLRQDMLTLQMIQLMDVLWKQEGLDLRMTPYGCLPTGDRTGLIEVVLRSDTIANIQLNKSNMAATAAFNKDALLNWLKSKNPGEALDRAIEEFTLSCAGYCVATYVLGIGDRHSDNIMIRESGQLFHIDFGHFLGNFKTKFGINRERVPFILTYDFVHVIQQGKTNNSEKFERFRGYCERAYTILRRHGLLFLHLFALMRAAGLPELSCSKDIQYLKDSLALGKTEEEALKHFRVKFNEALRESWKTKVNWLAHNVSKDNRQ

[22] = tested on: MCF7; assay: Synergistic antiproliferative activity against human MCF7 cells assessed as combination index at 50 uM in presence of 0.1 uM doxorubicin by MTT assay; assay type: functional
[23] = tested on: HepG2; assay: Synergistic antiproliferative activity against Doxorubicin-resistant human HepG2 cells assessed as combination index at 3.1 uM in presence of 0.1 uM doxorubicin by MTT assay; assay type: functional
[24] = tested on: HL-60; assay: Synergistic antiproliferative activity against human HL-60 cells assessed as inhibition of cell growth in presence of 100 nM doxorubicin by MTT assay; assay type: functional, cell-based
[25] = tested on: HepG2; assay: Synergistic antiproliferative activity against Doxorubicin-resistant human HepG2 cells assessed as inhibition of cell growth in presence of 100 nM doxorubicin by MTT assay; assay type: functional, cell-based

Structure (SMILES): Cc1cc2ncnn2cc1Nc1ncc2c(n1)N(C1CCOCC1)CC(=O)N2C
- Activity [1]: 13.3%
- CI [2]: 0.00121
- IC50 [3]: 281 nM
- CI [4]: 0.551
- Activity [5]: 3.2 10^9/L
- CI [6]: 0.01657
- microsomal CLint [7]: < 9.6 µL/min/mg
- Activity [8]: 4.05%
- CI [9]: 0.474
- CI [10]: 0.0268
- Activity [11]: Active
- IC50 [12]: 17100 nM
- CI [13]: 0.06059
- Activity [14]: Active
- CI [15]: 0.03585
- CI [16]: 0.00341
- Activity [17]: 57.27%
- Activity [18]: 3.46%
- CI [19]: 0.06131
- Activity [20]: 77.25%
- IC50 [21]: 758 nM
- CI [22]: 0.1215
- CI [23]: 0.02104
- IC50 [24]: < 100 nM
- Activity [25]: Active
